Measurements taken from the Kinase Knowledgebase extract (Sharma et al. 2016).

Assays:
[1] = molecular target: ROCK2 (human) (UniProt O75116); assay: Assessment of ROCK2 Kinase Activity using IMAP Assay
[2] = molecular target: ROCK2 (human) (UniProt O75116); assay: Assessment of ROCK2 Kinase Activity using Luciferin-Luciferase Assay

ROCK2 (human), sequence (O75116 whole entry, looked up): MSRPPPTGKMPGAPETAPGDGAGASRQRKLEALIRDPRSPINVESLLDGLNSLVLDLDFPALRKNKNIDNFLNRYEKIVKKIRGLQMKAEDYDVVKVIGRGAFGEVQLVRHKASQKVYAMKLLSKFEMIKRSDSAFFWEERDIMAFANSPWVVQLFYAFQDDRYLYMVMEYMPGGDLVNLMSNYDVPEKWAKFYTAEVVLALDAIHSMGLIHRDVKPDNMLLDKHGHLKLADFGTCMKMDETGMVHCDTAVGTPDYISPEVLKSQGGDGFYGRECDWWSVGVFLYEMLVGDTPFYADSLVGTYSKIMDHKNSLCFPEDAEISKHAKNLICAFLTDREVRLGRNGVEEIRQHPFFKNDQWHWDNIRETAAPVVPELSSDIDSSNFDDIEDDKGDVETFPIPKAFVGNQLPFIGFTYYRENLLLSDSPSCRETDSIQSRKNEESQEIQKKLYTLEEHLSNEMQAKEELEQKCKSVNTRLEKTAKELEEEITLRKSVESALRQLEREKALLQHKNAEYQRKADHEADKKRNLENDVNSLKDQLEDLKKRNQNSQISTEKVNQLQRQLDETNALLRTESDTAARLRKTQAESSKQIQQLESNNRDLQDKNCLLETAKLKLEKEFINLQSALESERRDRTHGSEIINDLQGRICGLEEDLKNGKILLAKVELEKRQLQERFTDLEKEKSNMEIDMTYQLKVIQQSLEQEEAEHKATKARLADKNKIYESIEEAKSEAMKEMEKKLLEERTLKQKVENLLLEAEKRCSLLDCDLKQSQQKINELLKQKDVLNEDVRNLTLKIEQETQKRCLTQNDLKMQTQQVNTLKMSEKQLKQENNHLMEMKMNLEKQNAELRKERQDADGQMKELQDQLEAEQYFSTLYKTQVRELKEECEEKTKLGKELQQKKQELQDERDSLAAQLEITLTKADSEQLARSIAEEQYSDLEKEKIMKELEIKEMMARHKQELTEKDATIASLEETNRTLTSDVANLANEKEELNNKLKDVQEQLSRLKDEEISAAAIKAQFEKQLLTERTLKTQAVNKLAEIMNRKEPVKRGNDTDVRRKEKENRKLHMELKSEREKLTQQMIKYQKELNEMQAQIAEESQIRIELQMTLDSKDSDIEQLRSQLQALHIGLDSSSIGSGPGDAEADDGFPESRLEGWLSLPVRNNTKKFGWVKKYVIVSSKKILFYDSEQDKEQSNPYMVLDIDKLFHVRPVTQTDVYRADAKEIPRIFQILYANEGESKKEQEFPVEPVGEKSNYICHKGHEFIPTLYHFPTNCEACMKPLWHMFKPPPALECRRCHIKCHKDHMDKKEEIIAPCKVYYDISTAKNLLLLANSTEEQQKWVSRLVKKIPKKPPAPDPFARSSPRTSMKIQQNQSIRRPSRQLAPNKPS

CN1CCc2nc(NC(=O)c3cccc([C@H]4CCCN4C(=O)c4ccc(-c5cnco5)cc4)c3)sc2C1
IC50 [1]: 11.2 nM | IC50 [2]: 2.6 nM

CN1CCc2nc(NC(=O)c3cccc([C@H]4CCCN4C(=O)c4csc(-c5ccncc5)n4)c3)sc2C1
IC50 [1]: 16 nM | IC50 [2]: 6.1 nM

COc1ccc(C(=O)N2CCC[C@@H]2c2cccc(C(=O)Nc3nc4c(s3)C[C@@H](N3CCOCC3)CC4)c2)cc1Cl
IC50 [1]: 7.9 nM | IC50 [2]: 5.8 nM

COc1ccc(C(=O)N2CCC[C@@H]2c2cccc(C(=O)Nc3nc4c(s3)CN(C)CC4)c2)cc1Cl
IC50 [2]: 38 nM

CN1CCc2nc(NC(=O)c3cccc([C@H]4CCCN4C(=O)c4csc(-c5cccnc5)n4)c3)sc2C1
IC50 [1]: 13 nM | IC50 [2]: 4 nM

COc1ccc(C(=O)N2CCC[C@@H]2c2cccc(C(=O)Nc3nc4c(s3)CN(C)CC4)c2)cc1OC
IC50 [2]: 30.7 nM

CN1CCc2nc(NC(=O)c3cccc([C@H]4CCCN4C(=O)c4nnn(-c5nonc5N)c4-c4ccccc4)c3)sc2C1
IC50 [1]: 44 nM | IC50 [2]: 6 nM

CN1CCc2nc(NC(=O)c3cccc([C@H]4CCCN4C(=O)c4cn5cc(C(N)=O)ccc5n4)c3)sc2C1
IC50 [1]: 7.4 nM | IC50 [2]: 2.5 nM

N#Cc1cccc2c1CCN2C(=O)N1CCC[C@@H]1c1cccc(C(=O)Nc2nc3c(s2)C[C@@H](N2CCOCC2)CC3)c1
IC50 [1]: 2.9 nM

CN1CCc2nc(NC(=O)c3cccc([C@H]4CCCN4C(=O)c4ccc(-n5ccnc5)cc4)c3)sc2C1
IC50 [2]: 14.5 nM

CN1CCc2nc(NC(=O)c3cccc([C@H]4CCCN4C(=O)c4ccc5cc(O)ccc5c4)c3)sc2C1
IC50 [1]: 4 nM | IC50 [2]: 2.1 nM

N#Cc1cccc(NC(=O)N2CCC[C@@H]2c2cccc(C(=O)Nc3nc4c(s3)C[C@@H](N3CCOCC3)CC4)c2)c1
IC50 [1]: 0.6 nM

N#Cc1ccc(NC(=O)COc2cccc(C(=O)Nc3nc4c(s3)C[C@@H](NCCC(F)(F)F)CC4)c2)cc1
IC50 [1]: 32 nM | IC50 [2]: 5.1 nM

Cc1nnnn1-c1ccc(C(=O)N2CCC[C@@H]2c2cccc(C(=O)Nc3nc4c(s3)CN(C)CC4)c2)cc1
IC50 [2]: 91.4 nM

COc1ccc(C(=O)N2CCC[C@@H]2c2cccc(C(=O)Nc3nc4c(s3)CN(C)CC4)c2)cc1C
IC50 [2]: 45.1 nM

CN1CCc2nc(NC(=O)c3cccc([C@H]4CCCN4C(=O)Nc4cccc(C(N)=O)c4)c3)sc2C1
IC50 [2]: 94.6 nM

N#CCCN[C@H]1CCc2nc(NC(=O)c3cccc(OCC(=O)Nc4ccc(C#N)cc4)c3)sc2C1
IC50 [1]: 27 nM | IC50 [2]: 5.2 nM

CN1CCc2nc(NC(=O)c3cccc([C@H]4CCCN4C(=O)c4cccc(-c5cccnc5)c4)c3)sc2C1
IC50 [2]: 80.4 nM

CN1CCc2nc(NC(=O)c3cccc(OCC(=O)Nc4ccc(C#N)cc4)c3)sc2C1
IC50 [2]: 23.4 nM

CN1CCc2nc(NC(=O)c3cccc([C@H]4CCCN4C(=O)c4cc(-c5ccncc5)[nH]n4)c3)sc2C1
IC50 [1]: 4.1 nM
